The test system of assay [1] is retinal cells. It counts as in vivo. As to conditions: vs BSS, P<0.0001, FIG. 10. The source says:
(§1) To induce retinal neurodegeneration, the inventors injected N-methyl-D-aspartate (NMDA) into the vitreous body of rats, a recognized model of retinal excitotoxicity in which NMDA, a synthetic glutamate analog, promotes cell death (Crisanti et al., 2006). Present in excess amounts, NMDA hyperactivates neuronal excitatory receptors (NMDA receptors) which become permeable to calcium. Injection of NMDA results in an increase in intracellular calcium levels. Intracellular calcium activates enzymes (phospholipase C, endonucleases, proteases) which degrade cell structures and lead to apoptosis.
Eight-week-old male Wistar rats weighing 320-350 g were used. Rats were maintained in standard animal housing with a 12 hr day/12 hr night cycle at a temperature of 21° C.+1° C. and 55±5% humidity. […]
The amount of cell death by apoptosis and the type of cells concerned were evaluated by the number and intraretinal location of TUNEL-positive nuclei. […] The total number of apoptotic cells per retina was calculated with reference to the number of fields counted (therefore to retinal length which varies from one area of the retina to another). The mean of these field counts was calculated for an entire retinal section (composed of 7 to 14 fields) and these means, calculated for the different treatment groups, were compared by a nonparametric Mann-Whitney test with significance at p<0.05. […]

For assay [2], the system named is retinal cells. The assay can be described thus: NMDA-induced retinal degeneration in the rat, different routes of administration of glibenclamide (Example 2), TUNEL apoptotic cell count. Conditions: for apoptotic cell count in retinas exposed to NMDA-induced degeneration: 18 hours, vs NMDA+DMSO, FIG. 6; for NMDA-induced retinal cell degeneration (apoptotic cells per field): intravitreal NMDA the same day. Type of assay: in vivo.
Description: as §1
Eight-week-old male Wistar rats weighing 320-350 g were used. Rats were maintained in standard animal housing with a 12 hr day/12 hr night cycle at a temperature of 21° C.+1° C. and 55±5% humidity.
Retinal sections were permeabilized by incubation in 0.3% Triton ×100 for 20 minutes at room temperature and then incubated for 1 hour at 37° C. with 50 μL of TUNEL reaction mixture per slide (mixture obtained with 40 μL TUNEL enzyme and 360 μL TUNEL label, solution containing FITC-conjugated nucleotides).
The amount of cell death by apoptosis and the type of cells concerned were evaluated by the number and intraretinal location of TUNEL-positive nuclei. For each eye, four complete retinal sections taken from the same eye sectors were used for apoptotic cell counts. The total number of apoptotic cells per retina was calculated with reference to the number of fields counted (therefore to retinal length which varies from one area of the retina to another). The mean of these field counts was calculated for an entire retinal section (composed of 7 to 14 fields) and these means, calculated for the different treatment groups, were compared by a nonparametric Mann-Whitney test with significance at p<0.05.
Eight groups of 2 rats were used. Both eyes of each animal received identical treatment. Three routes of administration of glibenclamide were tested: intravitreal route (1 ng or 0.01 ng injected in each eye), oral route (10 mg/kg body weight) and subconjunctival route (1 ng glibenclamide injected in each eye).
The glibenclamide stock solution for the intravitreal and subconjunctival injections was obtained by diluting 4.5 mg glibenclamide in 300 μL of pure DMSO. This solution was then frozen. The glibenclamide solutions at different concentrations used for the intravitreal and subconjunctival injections were obtained by dilution in BSS® buffer (Alcon) immediately before use.
The glibenclamide solutions for oral administration (10 mg/kg) were obtained by dissolving 8 mg glibenclamide in […] DMSO and 1030 μL of water to give a 6 mg/ml glibenclamide solution, which was administered through a syringe.
Group 1: (n=2, 4 eyes), intravitreal injection of 6 μL of solution containing 45 nM NMDA and 1 ng glibenclamide.
Group 2: (n=2, 4 eyes), intravitreal injection of 6 μL of solution containing 45 nM NMDA and 0.01 ng glibenclamide.
Group 4: (n=2, 4 eyes), oral administration of glibenclamide 10 mg/kg body weight and simultaneous intravitreal injection of 6 μL of 45 nM NMDA. A 7% glucose solution was made available ad libitum to avoid possible hypoglycemia.
Group 6: (n=2, 4 eyes), subconjunctival injection of 50 μL of solution containing 1 ng glibenclamide and simultaneous intravitreal injection of 6 μL of 45 nM NMDA.
18 hours after NMDA and glibenclamide administration, rats were euthanized and the eyes were immediately dissected, fixed in 4% paraformaldehyde and 10% sucrose for 4 hours, then immersed overnight at 4° C. in 15% sucrose in phosphate buffer.
Eyes were then embedded in OCT and cryostat-sectioned (10 μm thick). Sections were labeled by the TUNEL method to detect apoptotic cell death.

SMILES strings stand for the structures. Where two headings read alike, the source gives them in different places.

Take `COc1ccc(Cl)cc1C(=O)NCCc1ccc(S(=O)(=O)NC(=O)NC2CCCCC2)cc1` [glibenclamide]: the “protection of retinal cells from NMDA-induced degeneration (apoptotic cells per field)” value in the assay on retinal cells [1] (intravitreal 100 ng in BSS 5 days before intravitreal NMDA) and in the assay on retinal cells [1] (intravitreal 100 μg in BSS 5 days before intravitreal NMDA) was “significantly protected” throughout. Besides, the “apoptotic cell count in retinas exposed to NMDA-induced degeneration” value in the assay on retinal cells [2] (intravitreal 0.01 ng co-injected with 45 nM NMDA) and with retinal cells [2] (intravitreal 1 ng co-injected with 45 nM NMDA) was “significant decrease” each time. Also, the “organization of the retinal cell layers (DAPI labeling)” value is recorded as “perfectly conserved” in the assay with retinal cells [2] (intravitreal 0.01 ng co-injected with NMDA, FIG. 7C) and “perfectly conserved” in the assay on retinal cells [2] (intravitreal 1 ng co-injected with NMDA, FIG. 7B). Also, the “NMDA-induced retinal cell degeneration (apoptotic cells per field)” value is “significantly reduced” with retinal cells [2] (oral 10 mg/kg, vs DMSO per os, P=0.012, FIG. 8) and “significantly reduced” in the assay on retinal cells [2] (subconjunctival 1 ng, vs DMSO SCJ, P=0.0002, FIG. 9).

The values above are taken from patent publication US20120225947A1, “RETINAL NEUROPROTECTION BY ION CHANNEL BLOCKERS REGULATED BY THE SUR SUBUNIT” (ASSISTANCE PUBLIQUE - HOPITAUX DE PARIS, priority 2009, published 2012).
